Patent US11480559B2, “Blood collection tube, reagent, and method for analyzing blood characteristics using same” (FUJIMORI KOGYO CO., LTD., priority 2016, dated 2022)

Assays:
Assay type in all cases: cell-based
[1] = tested on: blood coagulation; experiment: ROTEM measurement, BD sodium citrate tube, calcium chloride, CTI, aprotinin, heparin sodium and prothrombin reagent (tissue factor); conditions: (1) no hemostatic agent; (2) NovoSeven 2 μg/mL; (3) TFPI 10 μg/mL; HemosIL RecombiPlasTin 0.04%
Protocol: (§1) To a blood sample collected in a sodium citrate blood collection tube manufactured by BD (containing 3.2% sodium citrate in an amount of 1/10 volume with respect to the blood), the following reagents were added to perform ROTEM measurement.
(1) Calcium chloride (final concentration, 12 mM), CTI (final concentration, 50 μg/mL), aprotinin (final concentration, 20 μg/mL), heparin sodium (final concentration, 0.15 U/mL), and a prothrombin reagent (addition of HemosIL RecombiPlasTin (15 μg/mL) to a final concentration of about 0.04%)
(2) Calcium chloride (final concentration, 12 mM), CTI (final concentration, 50 μg/mL), aprotinin (final concentration, 20 μg/mL), heparin sodium (final concentration, 0.15 U/mL), NovoSeven (final concentration, 2 μg/mL), and a prothrombin reagent (addition of HemosIL RecombiPlasTin to a final concentration of 0.04%) […]

[2] = tested on: blood coagulation; experiment: ROTEM measurement with STARTEM and EXTEM reagents (Comparative Example); conditions: (1) alone, (2) NovoSeven 2 μg/mL, (3) TFPI 10 μg/mL
Protocol: as §1
(1) STARTEM reagent and EXTEM reagent (trademark; a test reagent containing tissue factor as a major component)
(2) STARTEM reagent, EXTEM reagent, and NovoSeven (Novo Nordisk Pharma Ltd.; final concentration, 2 μg/mL)
(3) STARTEM reagent, EXTEM reagent, and TFPI (final concentration, 10 μg/mL)

[3] = tested on: mixed white thrombus formation; experiment: Thrombogenic capacity (white thrombus formation) in microchip coated with collagen and tissue factor, device of FIG. 2; conditions: tube A; aprotinin 10 μg/mL added before blood collection; calcium chloride 12 mM and CTI 50 μg/mL; flow rate 10 μL/min
Protocol: A method for analyzing the mixed white thrombus formation capacity using a microchip B for analysis of a mixed white thrombus is described below with reference to FIG. 2. The example illustrated in FIG. 2 is a mode in which a blood coagulation inhibitor is added to blood that has passed through a channel. However, this is merely an example, and the microchip may be, of course, in a different mode.
A reservoir (blood storage container) 206 is connected in an inverted position to an inlet 204 of the microchip B, and a liquid transfer pump 207 is connected to the reservoir 206. To the liquid transfer pump 207, a pressure sensor 208 is connected.
As the liquid for a liquid transfer pump 207, a liquid having a specific gravity lower than that of blood, such as mineral oil or […] is used. This liquid is introduced using the liquid transfer pump 207 into a reservoir 206 in which blood is preliminarily filled, thereby overlaying the liquid on the blood. […] By measuring the inflow pressure of the liquid, the inflow pressure of the blood into the channel can be indirectly measured.
More specifically, mineral oil is injected from the liquid transfer pump 207 into the reservoir 206. […] By providing the narrow section, high-shear-stress-induced platelet aggregation can be monitored, and thrombus formation in atherothrombosis can be reproduced, which is preferred. […]

[4] = tested on: blood coagulation; experiment: ROTEM measurement of blood collected in BD sodium citrate tube with added reagents; conditions: for blood coagulation (ROTEM): CTI 50 μg/mL, aprotinin 20 μg/mL
Protocol: as §1
(2) Calcium chloride (final concentration, 12 mM) and CTI (final concentration, 50 μg/mL)
(3) Calcium chloride (final concentration, 12 mM), CTI (final concentration, 50 μg/mL), and aprotinin (final concentration, 20 μg/mL)
(4) Calcium chloride (final concentration, 12 mM), CTI (final concentration, 50 μg/mL), aprotinin (final concentration, 20 μg/mL), and danaparoid sodium (final concentration, 0.25 U/mL)
The results for (1), (2), (3), and (4) are shown from the left in this order (in the order of initiation of coagulation).
(1) STARTEM reagent (calcium chloride reagent)
(4) Calcium chloride (final concentration, 12 mM), CTI (final concentration, 50 μg/mL), aprotinin (final concentration, 20 μg/mL), and heparin sodium (Mochida Pharmaceutical Co., Ltd.; final concentration, 0.15 U/mL)

[5] = tested on: platelet thrombus formation; experiment: Flow measurement of platelet thrombus formation in collagen-coated microchip, device of FIG. 1; conditions: blood collected in BD heparin blood collection tube, directly measured; 18 μL/min
Source text: First, a method for analyzing the platelet thrombus formation capacity using a microchip A for analysis of a platelet thrombus is described below with reference to FIG. 1. In the example illustrated in FIG. 1, two channels are provided in parallel. However, this is merely an example, and, of course, the microchip may have a single channel, or may be in a different mode.
Reservoirs (blood storage containers) 106 and 116 are connected in an inverted position to a first inlet 104 and a second inlet 114, respectively, of the microchip A, and liquid transfer pumps 107, and 117 are connected to the reservoirs 106 and 116. To the liquid transfer pumps 107 and 117, pressure sensors 108 and 118 are connected. […]
As the liquid for the liquid transfer pumps 107 and 117, a liquid having a specific gravity lower than that of blood, such as mineral oil or […] is used. […] By measuring the inflow pressure of the liquid, the inflow pressure of the blood into each channel can be indirectly measured. […]
Thrombus formation by platelets occurs when the blood passes through the reaction sections, and increases in the inflow pressure due to this thrombus formation can be observed. By detecting the patterns of these pressure increases using the pressure sensors, and comparing the detected patterns, blood properties, that is, the platelet thrombus formation capacity, can be evaluated. […]

Q: What does the source list for Ac-FQSKpNVHVDGYFERLXAKL-NH2 [TFPI]?
A: order of coagulation (ROTEM) [1]: Coagulation occurred in the order of (2), (3), and (1); ROTEM waveform versus reagent alone [2]: showed the same waveform

Q: How did the “thrombogenic capacity in the presence of blood flow” value [3] turn out when aprotinin was run?
A: The value was “did not influence the data”.

Q: What about the “initiation of coagulation (ROTEM)” value ([4]; aprotinin 20 μg/mL together with calcium chloride 12 mM and CTI 50 μg/mL) of the same substance?
A: The value was “suppressed initiation of blood coagulation”.

Q: Which “blood coagulation (ROTEM)” value ([4]; danaparoid sodium 0.25 U/mL further added to calcium chloride 12 mM) does the source give for danaparoid sodium here?
A: Its value is “complete suppression of blood coagulation”.

Q: Which “pressure increase due to platelet thrombus formation” value [5] does the source give for heparin here?
A: Its value is “hardly observed”.

Q: heparin sodium was tested. Which “blood coagulation (ROTEM)” value ([4]; heparin sodium 0.15 U/mL further added to calcium chloride 12 mM) did it give?
A: Its value is “complete suppression of blood coagulation”.
